These results are taken from ChEMBL document CHEMBL1122713, “Isomeric N-methyl-7-deazaguanines: synthesis, structural assignment, and inhibitory activity on xanthine oxidase” (J Med Chem, 1984).

Broadly, the Ki is a measure of affinity in units of concentration, obtained from inhibition or displacement. Low values mean tighter binding, high ones weaker binding.

For the assay, the target named is Xanthine dehydrogenase/oxidase (Bos taurus, UniProt P80457). The assay can be described thus: Compound is evaluated for competitive inhibition against xanthine oxidase from cow's milk.
Sequence of Xanthine dehydrogenase/oxidase (P80457 whole entry): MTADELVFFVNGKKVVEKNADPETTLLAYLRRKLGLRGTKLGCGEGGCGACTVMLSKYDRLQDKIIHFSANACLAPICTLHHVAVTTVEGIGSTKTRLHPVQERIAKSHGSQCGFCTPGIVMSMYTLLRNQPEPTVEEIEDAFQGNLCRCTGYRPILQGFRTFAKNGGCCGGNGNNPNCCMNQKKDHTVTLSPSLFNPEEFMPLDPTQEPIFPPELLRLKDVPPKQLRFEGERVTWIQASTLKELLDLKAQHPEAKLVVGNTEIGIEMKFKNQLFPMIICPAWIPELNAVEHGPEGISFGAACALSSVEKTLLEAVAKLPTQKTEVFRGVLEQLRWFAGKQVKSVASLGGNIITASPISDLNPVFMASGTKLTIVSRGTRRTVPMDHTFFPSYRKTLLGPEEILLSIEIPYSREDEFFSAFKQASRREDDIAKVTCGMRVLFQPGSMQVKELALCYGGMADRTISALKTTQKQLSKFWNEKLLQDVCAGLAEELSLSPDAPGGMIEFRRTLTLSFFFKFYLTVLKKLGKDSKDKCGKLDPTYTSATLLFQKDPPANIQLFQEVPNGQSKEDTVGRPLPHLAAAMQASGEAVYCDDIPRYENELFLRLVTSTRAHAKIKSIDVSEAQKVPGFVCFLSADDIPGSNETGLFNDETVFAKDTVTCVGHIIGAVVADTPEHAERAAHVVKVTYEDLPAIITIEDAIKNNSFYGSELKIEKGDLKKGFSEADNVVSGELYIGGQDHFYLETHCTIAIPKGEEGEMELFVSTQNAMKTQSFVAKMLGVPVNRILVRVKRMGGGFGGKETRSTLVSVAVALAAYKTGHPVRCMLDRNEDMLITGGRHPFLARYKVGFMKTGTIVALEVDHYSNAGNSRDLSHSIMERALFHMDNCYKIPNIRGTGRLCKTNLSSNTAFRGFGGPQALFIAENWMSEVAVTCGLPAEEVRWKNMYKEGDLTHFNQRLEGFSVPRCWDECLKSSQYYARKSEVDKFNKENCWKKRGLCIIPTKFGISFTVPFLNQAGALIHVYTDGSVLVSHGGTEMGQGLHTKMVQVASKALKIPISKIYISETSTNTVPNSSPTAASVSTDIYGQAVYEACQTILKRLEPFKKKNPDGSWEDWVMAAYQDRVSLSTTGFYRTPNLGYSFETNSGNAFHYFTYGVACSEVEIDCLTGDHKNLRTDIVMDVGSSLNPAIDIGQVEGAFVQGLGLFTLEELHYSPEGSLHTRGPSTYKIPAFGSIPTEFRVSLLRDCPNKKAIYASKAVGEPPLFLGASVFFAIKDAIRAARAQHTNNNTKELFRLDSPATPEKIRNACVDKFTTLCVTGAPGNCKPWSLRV
The compound `Cn1c(N)nc(O)c2ccnc1-2` displayed a Ki of 4.5 µM.
`Cn1ccc2c(=O)[nH]c(N)nc21` had a Ki of 3 µM.
The value for `Cn1c(N)nc2nccc-2c1O` was 40 µM.
`Nc1nc2c(c(=O)[nH]1)CC=N2` [7-DEAZAGUANINE] returned a Ki of 3 µM.
